Measured values from US20220251504A1, “FUNCTIONAL ASTROCYTES DERIVED FROM PLURIPOTENT STEM CELLS AND METHODS OF MAKING AND USING THE SAME” (New York Stem Cell Foundation, Inc., priority 2019, published 2022).

Key:
Assay type in all cases: cell-based, human
CD49f^+ astrocytes = assay: Intracellular Ca2+ imaging of hiPSC-astrocytes after ATP application; conditions: 100 μM ATP, 60s application
Source text: See also FIG. 32. […] Bar graphs show the maximum number of evoked spikes per 1 second stimulus (n=8/18), the maximum firing frequency in hertz (Hz) (n=5/15), the amplitude adaptation ratio between first and last action potential (n=5/15), the maximum action potential height (mV) (n=8/17), and the frequency of spontaneous excitatory post-synaptic currents (Hz) (n=5/9) in hiPSC-neurons at day 50 when cultured alone vs. with astrocytes during days 33-50. Dots correspond to 3 different lines. Each dot represents an independent cell. n=neurons alone/neurons co-cultured with astrocytes. Error bars show mean±standard deviation. p-values were calculated using a two-tailed, unpaired t-test. […] Scale bar, 50 μm. […] Error bars show mean±standard deviation (n=3 technical replicates). p-values were calculated using a two-tailed, unpaired t-test. […] Error bars show mean±standard deviation (n=4 technical replicates). p-values were calculated using a one-way ANOVA with Dunnett's correction for multiple comparisons. […] Error bars show mean±standard deviation. p-values were calculated using a one-way ANOVA with Dunnett's correction for multiple comparisons.
CD49f^+ astrocytes from three iPSC lines were cultured on glass coverslips coated with 0.1 mg/ml poly-L-ornithine followed by 10 μg/ml laminin. […] Fluorescence was recorded at 2 Hz by a cooled CCD camera (Hamamatsu™ Orca R^2). […]

[1] = test system: OLIG2-GFP knock-in hESC reporter line; assay: OLIG2-GFP expression by flow cytometry during differentiation of hESC reporter line; conditions: RA 100 nM from beginning of induction, SHH 100 ng/ml from day 8, or SAG replacing SHH, added to RA
Procedure: RA at a concentration of 100 nM from day 0 results in the highest yield of GFP^+ cells. […] Negative: human embryonic stem cell (hESC) line RUES1. […] Error bars are SEM (N=3). […] Only GFP^+ cells form spheres, providing enrichment to the GFP^+ population.
An OLIG2-GFP knock-in hESC reporter line was used to track OLIG2^+ progenitors by live fluorescent imaging. First, PAX6^+ cells were induced using dual inhibition of SMAD signaling in adherent cultures. Next, to mimic the embryonic spinal cord environment, different concentrations of RA and/or SHH were applied at various times and quantified OLIG2-GFP expression through flow cytometry (FIG. 2A).
At day 12, cells were detached and placed into low-attachment plates to promote their aggregation into spheres. The minimum number of cells required to form a sphere was at least 100 cells, and we noted that the majority of cells in the spheres were GFP^+. […]
(§1) Cells were enzymatically harvested by Accutase™ treatment for 25 minutes at 37° C. to obtain a single cell suspension. Cells were then re-suspended in 100 μl of their respective medium containing the appropriate amount of either primary antibody or fluorescence-conjugated antibodies and were incubated on ice for 30 minutes shielded from light. […] Flow cytometry data were analyzed using BD FACSDiva™ software.

O4^+ cells = assay: FACS analysis for O4+ cells at day 75 of differentiation; conditions: RA only vs RA and SAG in the first 12 days of differentiation
Procedure: Endogenous SHH levels are higher in the samples that were not exposed to SHH/SAG. Error bars are SEM (N=3). […] Negative Control: APC-conjugated secondary antibody only. […] A substantial population of GFP^+ cells is present only under the dual inhibition of SMAD proteins, indicating a synergistic effect between RA and the dual inhibition of SMAD. DSi: Dual SMAD inhibition; SB: SB431542; LDN: […].
Spheres were plated on pO/L plates, as described above, in PDGF Medium at day 30, changing 2/3 of the PDGF Medium every other day until day 75 of differentiation. The appearance of O4^+ cells was assessed by live O4 staining from day 55 onwards (FIG. 6). At day 75, O4+ OPCs could be isolated by FACS (FIG. 7I). Alternatively, for terminal oligodendrocyte differentiation (FIG. 7G, 7H), cells were cultured in Glial Medium from day 75, changing 2/3 of the medium every 3 days for two weeks.
as §1

## Nc1ncnc2c1ncn2[C@@H]1O[C@H](COP(=O)(O)OP(=O)(O)OP(=O)(O)O)[C@@H](O)[C@H]1O [ATP]
CD49f^+ astrocytes
  [Ca^2+]i response to extracellular ATP: robustly responded

## CC1=C(/C=C/C(C)=C/C=C/C(C)=C/C(=O)O)C(C)(C)CCC1 [RA, all trans retinoic acid]
[1]
  OLIG2^+ progenitors: 40.6%

## CNC1CCC(N(Cc2cccc(-c3ccncc3)c2)C(=O)c2sc3ccccc3c2Cl)CC1 (stereo not shown) [SAG]
[1]
  OLIG2^+ progenitors: 70.1%
O4^+ cells
  decrease in the O4^+ population in cells not provided with SAG: 56%
